US12150933B2, “IL-8 inihibitors for use in the treatment of some urological disorders” (DOMPÉ FARMACEUTICI S.P.A., priority 2015, dated 2024)
“Also recorded” adds a separate entry of the source.

Key:
[1] = system: KC/GRO-α; assay: KC/GRO-α plasma content after preventive treatment in CYP-induced cystitis model in rats; assay type: in vivo, rat; settings: day 9; 20 mg/kg p.o. 12 hours before first CYP, then 7 mg/kg p.o. twice a day for 7 days
Description: The effect of chronic preventive administration of Compd. 1 on KC/GRO-α plasma content in a CYP-induced cystitis model in conscious rats was evaluated.
To elicit cystitis, rats received intraperitoneal (i.p.) injections of CYP (75 mg/Kg every third day for three times). A single high dose of Compd. 1 (20 mg/kg) was orally administered 12 hours before the first CYP treatment; subsequently Compd. 1 (7 mg/kg p.o.) was administered twice a day for 7 days (from day 1 to day 7 from the first CYP administration). The oral dose of 7 mg/kg of Compd. 1 was chosen on the basis of previous evaluations. Animals blood was collected at day 7 (the same day of the last CYP treatment) at day 8 (about 24 hrs after last CYP administration) and at day 9 (about 48 hrs after last CYP administration). Each experimental group was composed of 10 animals, 10 animals treated with CYP+vehicle compound, 10 animals treated with CYP+Compd. 1, and 10 animals (sham) treated with CYP vehicle+vehicle compound.
The same animal was subjected to 3 blood serial samplings in order to evaluate the time-course of inflammatory mediators content. After thawing and centrifuge to remove any aggregates and lipid residues that could interfere with the reading, the samples were evaluated through quantitative analysis of KC/GRO-α.

[2] = Pharmacokinetic profile after oral administration; assay type: in vivo
[3] = system: CYP-induced cystitis; assay: Cystometrographic recordings in conscious rats with CYP-induced cystitis; assay type: in vivo, rat; settings: for bladder volume capacity (BVC): 24 hours after CYP 175 mg/kg i.p.
Description: Female Sprague Dawley rats (Crl:CD(SD)BR, 250-350 g bw) from Charles River Italy were used in these experiments. Animals were housed with free access to food and water and maintained on a forced 12 hours light-dark cycle at 22-24° C. for at least one week before the experiments were carried out.
Rats, anaesthetized with equithensin solution (2 ml/kg i.p.), were placed in a supine position and an approximately 10 mm midline incision was made in the shaved and cleaned abdominal wall. The urinary bladder was gently freed from adhering tissues, emptied and then cannulated, via an incision at the dome, with a polyethylene cannula (Portex, ID 0.58 mm, OD 0.96 mm), which was permanently sutured with silk thread. The cannula was exteriorized through a subcutaneous tunnel in the retroscapular area, where it was connected with a plastic adapter, in order to avoid the risk of removal by the animal.
For drugs testing, rats were utilized one day after catheter implantation at about 24 hours after administrations CYP.
On the day of the experiment, the rats (fasted overnight) were placed in Bollman's cages; after a stabilization period of 20 min, the free tip of the cannula was connected by a T-shape tube to a pressure transducer and to a peristaltic pump for a continuous infusion of saline solution (room temperature) into the urinary bladder, at the constant rate of 0.05 ml/min. This procedure, termed cystometry, allows the detection of continuous cycles of filling and voiding of the bladder named cystometrograms.
From the cystometrograms acquired by the Biopac System and recorded on a PC the Bladder Volume Capacity (BVC) parameter was calculated as volume capacity, defined as volume (in ml) infused into the bladder and necessary to induce detrusor contraction followed micturition.
Basal BVC was evaluated as mean values from the cystometrograms recorded in 30-60 minutes of time prior the treatment (“BASAL”). Then the bladder infusion was stopped, the animals were treated orally with the test compound or vehicle and, after restarting continuous bladder filling with saline for 4 or 5 hours, BVC values after administration were collected.
BVC parameters were recorded from the cystometrogram over a 4/5 hours period post-dose.

Question: What does the source list for `C[C@H](C(=O)O)c1ccc(Nc2nc(C(F)(F)F)cs2)cc1` [Compd. 1, (2S)-2-(4-{[4-(trifluoromethyl)-1,3-thiazol-2-yl]amino}phenyl) propanoic acid]?
Answer: GRO-α/KC blood levels [1]: significantly reduces GRO-α/KC blood levels at day 9; distribution in the tissues ([2]; in vivo): poorly distributed in the tissues; elimination from plasma ([2]; in vivo): gradually eliminated from plasma; oral bioavailability ([2]; in vivo, po): excellent oral bioavailability; absorption ([2]; oral route): rapid absorption; also recorded: well absorbed by the oral route; time of maximum concentration in plasma after administration ([2]; plasma): 2 h; Cmax ([2]; plasma, oral, read-out: maximum concentration (Cmax) in plasma): 47400 ± 25400 ng/mL; bladder volume capacity (BVC) ([3]; 10 mg/kg oral): did not induce any changes of BVC; bladder volume capacity (BVC) ([3]; 20 mg/kg oral): moderate increase of BVC statistically different from vehicle and pre-drug treatment at 4 and 5 hours; bladder volume capacity (BVC) ([3]; 30 mg/kg oral): sustained increase of BVC; increase of BVC ([3]; 30 mg/kg oral, significant at 3 and 4 hours after treatment): up to +40%; MP ([3]; 20 and 30 mg/kg oral): inactive on MP
